Test system: 377384-186-R-J1-PDC complex spheroid viability
Assay: Anticancer human tumor 377384-186-R-J1-PDC patient-derived pancreatic carcinoma cell line growth inhibition [RAS]
Details: for IC50: curve of first compound; for viability, T/C: stronger effect = lower value
Method in brief: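 Tumour cells grown as complex spheroids with HUVEC endothelial cells and mesenchymal stem cells, treated with RAS pathway inhibitor combinations. Each agent spans half-log steps from near clinical Cmax, or 10 microM where Cmax is unknown.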

[1] = second compound 0.00316 µM, first compound 0.0316 µM
[2] = second compound 0.00316 µM, first compound 0.1 µM
[3] = second compound 0.01 µM, first compound 0.0316 µM
[4] = second compound 0.01 µM, first compound 0.1 µM
[5] = second compound 0.0316 µM, first compound 0.0316 µM
[6] = second compound 0.0316 µM, first compound 0.1 µM
[7] = second compound 0.1 µM, first compound 0.0316 µM
[8] = second compound 0.1 µM, first compound 0.1 µM
[9] = second compound 0.316 µM, first compound 0.0316 µM
[10] = second compound 0.316 µM, first compound 0.1 µM
[11] = second compound 1 µM, first compound 0.0316 µM
[12] = second compound 1 µM, first compound 0.1 µM
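Also: spheroids exposed to compounds for seven days before readout.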

For `CC(C)n1nc(-c2ccc3oc(N)nc3c2)c2c(N)ncnc21` + C=CC(=O)N1CCN(c2nc(OCC3CCCN3C)nc3c(F)c(-c4nc(N)cc(C)c4C(F)(F)F)c(Cl)cc23)C(C)C1, the IC50 (second compound 0.00316 µM) was 12.2 nM, the IC50 (second compound 0.01 µM) was 15 nM and the IC50 (second compound 0.0316 µM) was 15.7 nM. For the same compound, the IC50 (second compound 0.1 µM) was 11.3 nM, the IC50 (second compound 0.316 µM) was 12.7 nM and the IC50 (second compound 1 µM) was 15.2 nM. It also gave a viability, T/C (second compound 0.00316 µM, first compound 0.000316 µM) of 93.6%, a viability, T/C (second compound 0.00316 µM, first compound 0.001 µM) of 80.3% and a viability, T/C (second compound 0.00316 µM, first compound 0.00316 µM) of 76%. It also gave a viability, T/C (second compound 0.00316 µM, first compound 0.01 µM) of 50.8%, a viability, T/C [1] of 35.4% and a viability, T/C [2] of 21.1%. It also gave a viability, T/C (second compound 0.01 µM, first compound 0.000316 µM) of 87.2%, a viability, T/C (second compound 0.01 µM, first compound 0.001 µM) of 83.1% and a viability, T/C (second compound 0.01 µM, first compound 0.00316 µM) of 68.2%. The viability, T/C (second compound 0.01 µM, first compound 0.01 µM) was 59.4%, the viability, T/C [3] was 36.6% and the viability, T/C [4] was 19.9%. It also gave a viability, T/C (second compound 0.0316 µM, first compound 0.000316 µM) of 90.5%, a viability, T/C (second compound 0.0316 µM, first compound 0.001 µM) of 76.3% and a viability, T/C (second compound 0.0316 µM, first compound 0.00316 µM) of 64.7%. The viability, T/C (second compound 0.0316 µM, first compound 0.01 µM) was 61.8%, the viability, T/C [5] was 40% and the viability, T/C [6] was 17.4%. For the same compound, the viability, T/C (second compound 0.1 µM, first compound 0.000316 µM) was 91.5%, the viability, T/C (second compound 0.1 µM, first compound 0.001 µM) was 77.2% and the viability, T/C (second compound 0.1 µM, first compound 0.00316 µM) was 67.4%. For the same compound, the viability, T/C (second compound 0.1 µM, first compound 0.01 µM) was 50.5%, the viability, T/C [7] was 37.9% and the viability, T/C [8] was 23.7%. It also gave a viability, T/C (second compound 0.316 µM, first compound 0.000316 µM) of 81.3%, a viability, T/C (second compound 0.316 µM, first compound 0.001 µM) of 82.2% and a viability, T/C (second compound 0.316 µM, first compound 0.00316 µM) of 70%. The viability, T/C (second compound 0.316 µM, first compound 0.01 µM) was 48.5%, the viability, T/C [9] was 40% and the viability, T/C [10] was 18%. The viability, T/C (second compound 1 µM, first compound 0.000316 µM) was 89.7%, the viability, T/C (second compound 1 µM, first compound 0.001 µM) was 89.2% and the viability, T/C (second compound 1 µM, first compound 0.00316 µM) was 81.7%. It also gave a viability, T/C (second compound 1 µM, first compound 0.01 µM) of 55.4%, a viability, T/C [11] of 37.7% and a viability, T/C [12] of 20.4%.

Compound `CC1(O)CCCC1n1c(=O)c(C(F)F)cc2cnc(NC3CCN(S(C)(=O)=O)CC3)nc21` (centres undefined) + C=CC(=O)N1CCN(c2nc(OCC3CCCN3C)nc3c(F)c(-c4nc(N)cc(C)c4C(F)(F)F)c(Cl)cc23)C(C)C1 has an IC50 (second compound 0.00316 µM) of 98.8 nM, an IC50 (second compound 0.01 µM) of 86.6 nM and an IC50 (second compound 0.0316 µM) of 95.4 nM. It also gave an IC50 (second compound 0.1 µM) of 77.1 nM, an IC50 (second compound 0.316 µM) of 76.9 nM and an IC50 (second compound 1 µM) of 67.5 nM. For the same compound, the viability, T/C [1] was 81.1%, the viability, T/C [2] was 49.7% and the viability, T/C (second compound 0.00316 µM, first compound 0.316 µM) was 17%. It also gave a viability, T/C (second compound 0.00316 µM, first compound 1 µM) of 24.2%, a viability, T/C (second compound 0.00316 µM, first compound 3.16 µM) of 33.9% and a viability, T/C (second compound 0.00316 µM, first compound 10 µM) of 4.64%. It also gave a viability, T/C [3] of 89.5%, a viability, T/C [4] of 45.1% and a viability, T/C (second compound 0.01 µM, first compound 0.316 µM) of 21.4%. The viability, T/C (second compound 0.01 µM, first compound 1 µM) was 20.8%, the viability, T/C (second compound 0.01 µM, first compound 3.16 µM) was 28.8% and the viability, T/C (second compound 0.01 µM, first compound 10 µM) was 4.18%. The viability, T/C [5] was 73.4%, the viability, T/C [6] was 49% and the viability, T/C (second compound 0.0316 µM, first compound 0.316 µM) was 20.9%. The viability, T/C (second compound 0.0316 µM, first compound 1 µM) was 20.7%, the viability, T/C (second compound 0.0316 µM, first compound 3.16 µM) was 29.1% and the viability, T/C (second compound 0.0316 µM, first compound 10 µM) was 5.27%. It also gave a viability, T/C [7] of 79.3%, a viability, T/C [8] of 42.1% and a viability, T/C (second compound 0.1 µM, first compound 0.316 µM) of 20.4%. It also gave a viability, T/C (second compound 0.1 µM, first compound 1 µM) of 24.4%, a viability, T/C (second compound 0.1 µM, first compound 3.16 µM) of 29.3% and a viability, T/C (second compound 0.1 µM, first compound 10 µM) of 4.69%. The viability, T/C [9] was 74.3%, the viability, T/C [10] was 42.8% and the viability, T/C (second compound 0.316 µM, first compound 0.316 µM) was 17.7%. The viability, T/C (second compound 0.316 µM, first compound 1 µM) was 21.5%, the viability, T/C (second compound 0.316 µM, first compound 3.16 µM) was 33% and the viability, T/C (second compound 0.316 µM, first compound 10 µM) was 5.33%. It also gave a viability, T/C [11] of 69.4%, a viability, T/C [12] of 39.9% and a viability, T/C (second compound 1 µM, first compound 0.316 µM) of 19.7%. It also gave a viability, T/C (second compound 1 µM, first compound 1 µM) of 22.5%, a viability, T/C (second compound 1 µM, first compound 3.16 µM) of 32.5% and a viability, T/C (second compound 1 µM, first compound 10 µM) of 6.56%.

Source: PubChem BioAssay AID2060903 (Molecular Pharmacology Branch, DTP, NCI, 2025)
